This is an account of results in ChEMBL document CHEMBL1149616, “Antiproliferative, low-calcemic, fluorinated sulfone analogs of 1alpha,25-dihydroxyvitamin D3: chemical synthesis and biological evaluation” (Bioorg Med Chem, 2007).

Structures are written as SMILES. Activity calls are given as the source filed them. The rule behind the calls is not given here.

Assay [1] relates to Keratinocyte. Nature of the assay: Antiproliferative activity against mouse keratinocytes at 7 nM. The class given is functional, cell-based.
The subject of assay [2] is Keratinocyte. Nature of the assay: Antiproliferative activity against mouse keratinocytes at 3 to 7 nM. The class given is functional, cell-based.

In the case of `C=C1/C(=C\C=C2/CCC[C@]3(C)C([C@H](C)CCCS(=O)(=O)C(F)(F)F)=CC[C@@H]23)C[C@@H](O)C[C@@H]1O`, the outcome in the assay with Keratinocyte [1] was Active. Regarding `C=C1/C(=C\C=C2/CCC[C@]3(C)[C@@H]([C@@H](C)OCCCS(=O)(=O)C(F)(F)F)CC[C@@H]23)C[C@@H](O)C[C@@H]1O`, the result in the assay with Keratinocyte [2] was Active.
